Measurements: patent US12110311B2, “Cyclic deoxyribonucleotide compounds” (NUCORION PHARMACEUTICALS, INC., priority 2019, dated 2024)
Like-named read-outs stand apart in the source and are kept apart here.

Assays:
[1] = in vivo; cited from earlier work
[2] = Tissue distribution following oral administration in rats (prodrug and metabolite levels in liver and blood); type: in vivo; conditions: rat, 1 hour after oral administration, 5 mg/kg
Protocol: The liver specificity of the disclosed compounds is compared relative to a corresponding active compound in the liver and other organs that could be targets of toxicity.
Reference compounds and the cyclic deoxyribonucleotide compounds are administered at 5-50 mg/kg to fasted rats by oral gavage. Plasma concentrations of the metabolites, and parent compounds in circulation and in the hepatic portal vein are determined by HPLC-UV, and the liver, small intestine, and other organ concentrations are measured by LC-MS using the standard chromatography method.

[3] = prodrug level in blood, read-out: Drug blood
[4] = prodrug level in liver, read-out: Drug liver

concentration at 1 h [2, 3] [ng/mL]	concentration at 1 h [2, 4] [ng/g]	Structure (SMILES)	biological half-life [1] [minutes]
		O=c1[nH]cc(F)c(=O)[nH]1 [5-Fluorouracil]	~16
11	668	CC(C)OC(=O)c1ccccc1COP1(=O)OC[C@H]2O[C@@H](n3cc(F)c(=O)[nH]c3=O)C[C@@H]2O1 (stereo partly drawn) [Compound 124, Isopropyl 2-((((4aR,6R,7aS)-6-(5-fluoro-2,4-dioxo-3,4-dihydropyrimidin-1(2H)-yl)-2-oxidotetrahydro-4H-furo[3,2-d][1,3,2]dioxaphosphinin-2-yl)oxy)methyl)benzoate]	
2.7	9.3	CCCOC(=O)c1ccccc1COP1(=O)OC[C@H]2O[C@@H](n3cc(F)c(=O)[nH]c3=O)C[C@@H]2O1 (stereo partly drawn) [Compound 126, Propyl 2-((((4aR,6R,7aS)-6-(5-fluoro-2,4-dioxo-3,4-dihydropyrimidin-1(2H)-yl)-2-oxidotetrahydro-4H-furo[3,2-d][1,3,2]dioxaphosphinin-2-yl)oxy)methyl)benzoate]	
